Read-outs that look alike come from different tables or passages of the source.
Assays:
[1] = clinic; cited from earlier work
[2] = system: r-cardiomyocytes co-cultured with human FibiPSC; test: FibiPSC-cardiomyocyte co-cultures exposed to Dox: cTnT release; assay type: cell-based, rat; details: control (IgG) co-cultures with h-FibiPSC; Dox 0.5 μM, 24 h
Protocol: Fib^iPSC-Cardiomyocyte co-cultures. Cardiomyocytes were plated at a density of 5×10^4 cells/cm^2 on collagen coated plates in the presence of 20% (FBS) in Hams F-10 culture medium. After 24 hours, the media was changed to low serum medium (0.5% FBS, 1% insulin, 1% transferrin/selenium, 1% ascorbic acid, and 1% bovine serum albumin) in Dulbecco's modified Eagle's medium (DMEM). FibiPSC were added to the cultures at a density of 3×10^4/cm^2. Human Hi-FGF2 antibody (Hi-Ab, 20 μg/ml) or non-immune rabbit IgG was added to the culture after 6 hours. The Hi-Ab and rabbit IgG were supplemented in the co-cultures every 24 hours. […] Subsequently, the media was collected and stored at −80° C.
Protein extraction and immunoblotting (western blot).
Hi-FGF2 antibody. Anti-Hi-FGF2 antibody (Hi-Ab) against 12 amino acids from the N-terminal section of the Hi-FGF2 “[…]” (SEQ ID NO:1) was made in rabbit and affinity purified by Genscript. Characterization was done as we described previously, for a similar preparation anti-Hi-FGF2 (9). Affinity purified Hi-Ab was used at a concentration of 20 μg/ml in in vitro models.

[3] = system: neonatal rat ventricular cardiomyocytes co-cultured with MEFs; test: MEF-cardiomyocyte co-cultures exposed to Dox: Troponin T release into medium; assay type: cell-based; details: Dox 0.5 μM, 24 h
Protocol: In vitro experiments. Neonatal rat ventricular cardiomyocytes (referred to as ‘cardiomyocytes’) were isolated from 1-2 day old rat pups as previously described (10).
MEF-Cardiomyocyte co-cultures. Cardiomyocytes were plated at a density of 5×10^4 cells/cm^2 on collagen (Corning, #354236) coated glass coverslips in the presence of 20% fetal bovine serum (FBS) in Hams F-10 culture medium; 24 hours later the media was changed and MEFS from FGF2(WT), FGF2(−), FGF2(Hi), and FGF2(Lo) strains (2×10^4/cm^2) were added to the cultures in low-serum medium (0.5% FBS, 1% insulin, 1% transferrin/selenium, and 1% ascorbic acid) in Dulbecco's modified Eagle's medium (DMEM). […] Conditioned media were collected 24 h later, and stored at −80° C. Cells attached on coverslips were used for the Calcein-AM/Cobalt chloride mPTP assay.
Primary mouse embryonic fibroblasts (MEFs)-r-cardiomyocyte co-cultures. MEFs were isolated as described (30). R-cardiomyocytes were plated at a density of 5×10^4 cells/cm^2 on collagen (Corning, #354236) coated glass coverslips in the presence of 20% fetal bovine serum (FBS) in Hams F-10 culture medium; 24 hours later the media was changed and MEFS from FGF2(WT) and FGF2(Lo) strains (2×10^4/cm^2) were added to the cultures in low-serum medium (0.5% FBS, 1% insulin, 1% transferrin/selenium, and 1% ascorbic acid) in Dulbecco's modified Eagle's medium (DMEM). […]

cancer patients = details: cited from earlier work
[4] = system: FGF2(WT), FGF2(−), FGF2(Hi), FGF2(Lo) mice; test: In vivo model for acute Doxorubicin effects: mortality and body weight; set-up: species or system mouse; details: for effect on body weight: all groups, 10 days post-injection; for Dox-induced mortality: by day 10 post-Dox
Description: In vivo model for acute cardiotoxic effects. […] Hearts were then collected for biochemical analyses.

[5] = system: Bnip3 protein in hearts of FGF2 mouse strains; details: in vivo
Protocol: Protein (western) immunoblotting. At the end of the in vivo study, hearts were collected, snap frozen in liquid nitrogen, and stored at −80° C. Hearts were powdered with liquid nitrogen using a mortar and pestle prior to being homogenized in 10 mM Tris-HCl pH 7.4, 100 mM NaCl, 300 mM sucrose, 2 mM MgCl2, 1% thiodiglycol, 60 mM B glycerophosphate, 10 mM NaF and an equal volume of 20% glycerol, 100 mM Tris/HCl PH=6.8, and 2% sodium dodecyl sulphate (SDS). All buffers were supplemented (1:100) with protease inhibitor cocktail (Sigma-Aldrich, #8304) and phosphatase inhibitor cocktail set II and IV (Calbiochem, #524625 and #524628). Samples were boiled, sonicated, and centrifuged 15 minutes at 21,000 g to remove cellular debris. Protein concentration was measured by bicinchoninic acid assay. Following SDS-polyacrylamide gel electrophoresis and protein transfer to polyvinylidene fluoride (PVDF) membranes, total protein was stained using 2% Ponceau S (Sigma-Aldrich, P3504) (w/v) in 30% trichloroacetic acid to assess overall protein transfer. Non-specific binding sites were blocked by incubation in 10% milk/TBS-T for 1 hour at room temperature. […]
Protein extraction and immunoblotting (western blot). […] Protein concentration was measured using the bicinchoninic acid assay from Sigma. […]

pertuzumab
half life [1]: 18 days

infliximab
half life [1]: 9.5 days

Doxorubicin
cardiomyocyte damage measured by cTnT release [2]: robust cardiomyocyte damage | Dox-induced cTnT release ([3]; co-cultures with FGF2(WT) MEFs): observed | Dox-induced Tn-T release ([3]; co-cultures with FGF2(WT), FGF2(−) and FGF2(Hi) MEFs): observed | incidence of cardiotoxicity (cancer patients; cumulative dose 400 mg/m^2): 3-5% | incidence of cardiotoxicity (cancer patients; cumulative dose 700 mg/m^2): 18-48% | effect on body weight [4]: some weight loss | effect on body weight ([4]; listed as Doxorubicin): significantly decreased body weight | deaths associated with Dox administration ([4]; female FGF2(WT) and FGF2(Lo) groups): No death | Dox-induced mortality ([4]; female FGF2(−) mice): 30% | post-Dox mortality ([4]; male FGF2(Hi) mice): 20% | post-Dox mortality ([4]; male FGF2(WT) mice): 10% | Dox-induced mortality ([4]; male FGF2(−) mice): 70% | deaths associated with Dox administration ([4]; males, in either the FGF2(WT) or the FGF2(Lo) group): one death in ten animals | deaths post-Dox ([4]; remaining female groups (other than FGF2(−))): No deaths | upregulation of cardiac Bnip3 protein versus saline-treated group [5]: 1.5 fold

Reference: US20210040485A1, “Elimination or Neutralization of Endogenous High Molecular Weight FGF-2 Increases Cardiac Resistance to Doxorubicin-Induced Damage” (University of Manitoba, priority 2018, published 2021)
